According to patent US9193695B2, “1, 2, 4-triazolone derivative and use thereof as an antagonist on the arginine-vasopressin 1B receptor” (TAISHO PHARMACEUTICAL CO., LTD., priority 2010, dated 2015):

Molecular target: T1, Human V1b receptor (Homo sapiens, UniProt P47901)
T1 sequence (P47901 1-424): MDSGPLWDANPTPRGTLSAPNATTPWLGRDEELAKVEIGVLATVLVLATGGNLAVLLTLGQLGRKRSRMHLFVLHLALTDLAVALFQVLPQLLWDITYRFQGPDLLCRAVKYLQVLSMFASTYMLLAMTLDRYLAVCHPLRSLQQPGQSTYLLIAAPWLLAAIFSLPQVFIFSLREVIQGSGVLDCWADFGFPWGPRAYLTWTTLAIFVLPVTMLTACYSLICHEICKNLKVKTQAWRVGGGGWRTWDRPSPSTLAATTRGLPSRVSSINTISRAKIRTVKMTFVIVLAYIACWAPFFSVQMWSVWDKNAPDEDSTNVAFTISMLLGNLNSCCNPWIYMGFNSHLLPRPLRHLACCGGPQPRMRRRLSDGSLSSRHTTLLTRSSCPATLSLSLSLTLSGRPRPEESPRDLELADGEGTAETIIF
Assay: Binding test for V1b receptor ([3H]AVP displacement, crude membrane preparation)
Parameters: expressed in transfected cells; host or cells: 293FT cells (Invitrogen), transient expression; crude membrane preparation
Settings: [3H]AVP 0.4 to 1 nmol/L; membranes of 293FT cells transiently expressing human V1b receptor; room temperature, 60 minutes
Description: Binding Test for V1b Receptor
Human V1b receptor was transiently expressed in 293FT cells (Invitrogen). The cells were collected and were homogenated in a 15 mmol/L tris-hydrochloric acid buffer (pH 7.4, containing 2 mmol/L magnesium chloride, 0.3 mmol/L ethylenediaminetetracetic acid, and 1 mmol/L glycol ether diaminetetraacetic acid). The resulting homogenate was centrifuged at 50,000×g at 4° C. for 20 minutes. The precipitate was resuspended in a 75 mmol/L tris-hydrochloric acid buffer (pH 7.4, containing 12.5 mmol/L magnesium chloride, 0.3 mmol/L ethylenediaminetetracetic acid, 1 mmol/L glycol ether diamine tetraacetic acid, and 250 mmol/L sucrose) to give a crude membrane preparation, which was stored at −80° C. until the binding test. In the binding test, the crude membrane preparation was diluted with a 50 mmol/L tris-hydrochloric acid buffer (pH 7.4, containing 10 mmol/L magnesium chloride and 0.1% bovine serum albumin), and test compound was serially diluted with DMSO. The diluted crude membrane preparation was incubated with each test compound (final concentration of 0.01 nmol/L to 1 μmol/L) and [^3H]AVP (final concentration: 0.4 to 1 nmol/L) at room temperature for 60 minutes. After the incubation, the mixture was suction filtered through a GF/C filter pretreated with 0.3% polyethyleneimine. The GF/C filter was dried, and a scintillator was added thereto. The radioactivity remaining on the filter was measured using TopCount (PerkinElmer Inc.). The radioactivity in the presence of 10 μmol/L of unlabeled AVP was defined as 0%, and the radioactivity in the absence of unlabeled AVP was defined as 100%. A dose-response curve was plotted from radioactivities in the presence of a test compound at various concentrations, and the 50% inhibitory concentration (IC50 value) of the compound was calculated.

| SMILES | IC50 [nM] |
| --- | --- |
| CC(CO)NC(=O)Cn1c(-c2cccc(Cl)c2)nn(-c2ccc(CCN3CCOCC3)cc2)c1=O (racemic) [Ad-20, 2-[3-(3-Chlorophenyl)-1-{4-[2-(morpholin-4-yl)ethyl]phenyl}-5-oxo-1,5-dihydro-4H-1,2,4-triazol-4-yl]-N-(1-hydroxypropan-2-yl)acetamide] | 96 |
| CC(C)NC(=O)Cn1c(-c2cccc(Cl)c2)nn(-c2ccc(CC(C)N3C4CCC3COC4)cn2)c1=O (single isomer, unassigned; (+)) [Ad-19-2] | 17 |
| CC(C)NC(=O)Cn1c(-c2cccc(Cl)c2)nn(-c2ccc(CC(C)N3C4CCC3COC4)cn2)c1=O (single isomer, unassigned; (-)) [Ad-19-1] | 0.59 |
| CC(C)NC(=O)Cn1c(-c2cccc(Cl)c2)nn(-c2ccc(CCN3CCC(O)C3)cc2)c1=O (stereo not shown) [Aa-6, 2-[3-(3-Chlorophenyl)-1-{4-[2-(3-hydroxypyrrolidin-1-yl)ethyl]phenyl}-5-oxo-1,5-dihydro-4H-1,2,4-triazol-4-yl]-N-(propan-2-yl)acetamide] | 56 |
| CC(C)NC(=O)Cn1c(-c2cccc(Cl)c2)nn(-c2ccc(CCN3CCC(CO)C3)cc2)c1=O (stereo not shown) [Aa-7, 2-[3-(3-Chlorophenyl)-1-(4-{2-[3-(hydroxymethyl)pyrrolidin-1-yl]ethyl}phenyl)-5-oxo-1,5-dihydro-4H-1,2,4-triazol-4-yl]-N-(propan-2-yl)acetamide] | 34 |
| CC(C)NC(=O)Cn1c(-c2cccc(Cl)c2)nn(-c2ccc(CCN3CC4CCC(C3)O4)cc2)c1=O [Aa-9, 2-[3-(3-Chlorophenyl)-1-{4-[2-(8-oxa-3-azabicyclo[3.2.1]oct-3-yl)ethyl]phenyl}-5-oxo-1,5-dihydro-4H-1,2,4-triazol-4-yl]-N-(propan-2-yl)acetamide] | 18 |
| CC(C)NC(=O)Cn1c(-c2cccc(Cl)c2)nn(-c2ccc(CCN3CCCCC3)cc2)c1=O [Aa-11, 2-[3-(3-Chlorophenyl)-5-oxo-1-{4-[2-(piperidin-1-yl)ethyl]phenyl}-1,5-dihydro-4H-1,2,4-triazol-4-yl]-N-(propan-2-yl)acetamide] | 37 |
| CC(C)NC(=O)Cn1c(-c2cccc(Cl)c2)nn(-c2ccc(CCN3CCCOCC3)cc2)c1=O [Aa-13, 2-[3-(3-Chlorophenyl)-1-{4-[2-(1,4-oxazepan-4-yl)ethyl]phenyl}-5-oxo-1,5-dihydro-4H-1,2,4-triazol-4-yl]-N-(propan-2-yl)acetamide] | 20 |
| CC(C)NC(=O)Cn1c(-c2cccc(Cl)c2)nn(-c2ccc(CCN3C4CCC3CC(O)C4)cn2)c1=O (stereo not shown) [Ab-4, 2-[3-(3-Chlorophenyl)-1-{5-[2-(3-hydroxy-8-azabicyclo[3.2.1]oct-8-yl)ethyl]pyridin-2-yl}-5-oxo-1,5-dihydro-4H-1,2,4-triazol-4-yl]-N-(propan-2-yl)acetamide] | 20 |
| CC(C)NC(=O)Cn1c(-c2cccc(Cl)c2)nn(-c2ccc(CCN3CCOCC3)nc2)c1=O [Ac-2, 2-[3-(3-Chlorophenyl)-1-{6-[2-(morpholin-4-yl)ethyl]pyridin-3-yl}-5-oxo-1,5-dihydro-4H-1,2,4-triazol-4-yl]-N-(propan-2-yl)acetamide] | 79 |
| CC(C)(C)NC(=O)Cn1c(-c2cccc(Cl)c2)nn(-c2ccc(CCN3CCOCC3)cc2)c1=O [Ad-1, N-Tert-Butyl-2-[3-(3-chlorophenyl)-1-{4-[2-(morpholin-4-yl)ethyl]phenyl}-5-oxo-1,5-dihydro-4H-1,2,4-triazol-4-yl]acetamide] | 2.5 |
| CC(NC(=O)Cn1c(-c2cccc(Cl)c2)nn(-c2ccc(CCN3CCOCC3)cc2)c1=O)C(F)(F)F (stereo not shown) [Ad-2, 2-[3-(3-Chlorophenyl)-1-{4-[2-(morpholin-4-yl)ethyl]phenyl}-5-oxo-1,5-dihydro-4H-1,2,4-triazol-4-yl]-N-(1,1,1-trifluoropropan-2-yl)acetamide] | 15 |
| CC(C)(CO)NC(=O)Cn1c(-c2cccc(Cl)c2)nn(-c2ccc(CCN3CCOCC3)cc2)c1=O [Ad-3, 2-[3-(3-Chlorophenyl)-1-{4-[2-(morpholin-4-yl)ethyl]phenyl}-5-oxo-1,5-dihydro-4H-1,2,4-triazol-4-yl]-N-(1-hydroxy-2-methylpropan-2-yl)acetamide] | 55 |
| O=C(Cn1c(-c2cccc(Cl)c2)nn(-c2ccc(CCN3CCOCC3)cc2)c1=O)NC1CCC1 [Ad-4, 2-[3-(3-Chlorophenyl)-1-{4-[2-(morpholin-4-yl)ethyl]phenyl}-5-oxo-1,5-dihydro-4H-1,2,4-triazol-4-yl]-N-cyclobutylacetamide] | 102 |
| O=C(Cn1c(-c2cccc(Cl)c2)nn(-c2ccc(CCN3CCOCC3)cc2)c1=O)NC1COC1 [Ad-5, 2-[3-(3-Chlorophenyl)-1-{4-[2-(morpholin-4-yl)ethyl]phenyl}-5-oxo-1,5-dihydro-4H-1,2,4-triazol-4-yl]-N-(oxetan-3-yl)acetamide] | 97 |
| O=C(Cn1c(-c2cccc(Cl)c2)nn(-c2ccc(CCN3CCOCC3)cc2)c1=O)NCC1CC1 [Ad-6, 2-[3-(3-Chlorophenyl)-1-{4-[2-(morpholin-4-yl)ethyl]phenyl}-5-oxo-1,5-dihydro-4H-1,2,4-triazol-4-yl]-N-(cyclopropylmethyl)acetamide] | 62 |
| CC(C)NC(=O)Cn1c(-c2cccc(Cl)c2)nn(-c2ccc(CCN3CCOCC3)c(F)c2)c1=O [Ad-7, 2-[3-(3-Chlorophenyl)-1-{3-fluoro-4-[2-(morpholin-4-yl)ethyl]phenyl}-5-oxo-1,5-dihydro-4H-1,2,4-triazol-4-yl]-N-(propan-2-yl)acetamide] | 3.8 |
| CC(C)NC(=O)Cn1c(-c2cccc(Cl)c2)nn(-c2ccc(CCN3C4CCC3COC4)c(F)c2)c1=O [Ad-8, 2-[3-(3-Chlorophenyl)-1-{3-fluoro-4-[2-(3-oxa-8-azabicyclo[3.2.1]oct-8-yl)ethyl]phenyl}-5-oxo-1,5-dihydro-4H-1,2,4-triazol-4-yl]-N-(propan-2-yl)acetamide] | 1.5 |
| COc1cc(-n2nc(-c3cccc(Cl)c3)n(CC(=O)NC(C)C)c2=O)ccc1CCN1CCOCC1 [Ad-9, 2-[3-(3-Chlorophenyl)-1-{3-methoxy-4-[2-(morpholin-4-yl)ethyl]phenyl}-5-oxo-1,5-dihydro-4H-1,2,4-triazol-4-yl]-N-(propan-2-yl)acetamide] | 2.3 |
| COc1cc(-n2nc(-c3cccc(Cl)c3)n(CC(=O)NC(C)C)c2=O)ccc1CCN1C2CCC1COC2 [Ad-10, 2-[3-(3-Chlorophenyl)-1-{3-methoxy-4-[2-(3-oxa-8-azabicyclo[3.2.1]oct-8-yl)ethyl]phenyl}-5-oxo-1,5-dihydro-4H-1,2,4-triazol-4-yl]-N-(propan-2-yl)acetamide] | 1.3 |
| CC(C)NC(=O)Cn1c(-c2cccc(Cl)c2)nn(-c2ccc(CC(C)N3CCOCC3)cc2)c1=O (stereo not shown) [Ad-13, 2-[3-(3-Chlorophenyl)-1-{4-[2-(morpholin-4-yl)propyl]phenyl}-5-oxo-1,5-dihydro-4H-1,2,4-triazol-4-yl]-N-(propan-2-yl)acetamide] | 2.9 |
| CC(C)NC(=O)Cn1c(-c2cccc(Cl)c2)nn(-c2ccc(CC(C)N3C4CCC3COC4)cc2)c1=O (stereo not shown) [Ad-14, 2-[3-(3-Chlorophenyl)-1-{4-[2-(3-oxa-8-azabicyclo[3.2.1]oct-8-yl)propyl]phenyl}-5-oxo-1,5-dihydro-4H-1,2,4-triazol-4-yl]-N-(propan-2-yl)acetamide] | 0.54 |
| CC(C)NC(=O)Cn1c(-c2cccc(Cl)c2)nn(-c2ccc(CC(C)N3CCOCC3)cn2)c1=O (stereo not shown) [Ad-15, 2-[3-(3-Chlorophenyl)-1-{5-[2-(morpholin-4-yl)propyl]pyridin-2-yl}-5-oxo-1,5-dihydro-4H-1,2,4-triazol-4-yl]-N-(propan-2-yl)acetamide] | 5.1 |
| CC(C)NC(=O)Cn1c(-c2cccc(Cl)c2)nn(-c2ccc(CC(C)N3C4CCC3COC4)cn2)c1=O (stereo not shown) [Ad-16, 2-[3-(3-Chlorophenyl)-1-{5-[2-(3-oxa-8-azabicyclo[3.2.1]oct-8-yl)propyl]pyridin-2-yl}-5-oxo-1,5-dihydro-4H-1,2,4-triazol-4-yl]-N-(propan-2-yl)acetamide] | 0.92 |
| CC(C)(C)NC(=O)Cn1c(-c2cccc(Cl)c2)nn(-c2ccc(CCN3CCOCC3)cn2)c1=O [Ad-17, N-Tert-Butyl-2-[3-(3-chlorophenyl)-1-{5-[2-(morpholin-4-yl)ethyl]pyridin-2-yl}-5-oxo-1,5-dihydro-4H-1,2,4-triazol-4-yl]acetamide] | 3.5 |
